For one assay, the target named is Cytochrome P450 2D6 (Homo sapiens, UniProt P10635).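 Note: CYP2D6 member of a cytochrome P450 panel assay.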
In assay [1] the target is T1, Replicative DNA helicase DnaB (Mycobacterium tuberculosis, UniProt P9WMR3).
T1 sequence (P9WMR3 whole entry): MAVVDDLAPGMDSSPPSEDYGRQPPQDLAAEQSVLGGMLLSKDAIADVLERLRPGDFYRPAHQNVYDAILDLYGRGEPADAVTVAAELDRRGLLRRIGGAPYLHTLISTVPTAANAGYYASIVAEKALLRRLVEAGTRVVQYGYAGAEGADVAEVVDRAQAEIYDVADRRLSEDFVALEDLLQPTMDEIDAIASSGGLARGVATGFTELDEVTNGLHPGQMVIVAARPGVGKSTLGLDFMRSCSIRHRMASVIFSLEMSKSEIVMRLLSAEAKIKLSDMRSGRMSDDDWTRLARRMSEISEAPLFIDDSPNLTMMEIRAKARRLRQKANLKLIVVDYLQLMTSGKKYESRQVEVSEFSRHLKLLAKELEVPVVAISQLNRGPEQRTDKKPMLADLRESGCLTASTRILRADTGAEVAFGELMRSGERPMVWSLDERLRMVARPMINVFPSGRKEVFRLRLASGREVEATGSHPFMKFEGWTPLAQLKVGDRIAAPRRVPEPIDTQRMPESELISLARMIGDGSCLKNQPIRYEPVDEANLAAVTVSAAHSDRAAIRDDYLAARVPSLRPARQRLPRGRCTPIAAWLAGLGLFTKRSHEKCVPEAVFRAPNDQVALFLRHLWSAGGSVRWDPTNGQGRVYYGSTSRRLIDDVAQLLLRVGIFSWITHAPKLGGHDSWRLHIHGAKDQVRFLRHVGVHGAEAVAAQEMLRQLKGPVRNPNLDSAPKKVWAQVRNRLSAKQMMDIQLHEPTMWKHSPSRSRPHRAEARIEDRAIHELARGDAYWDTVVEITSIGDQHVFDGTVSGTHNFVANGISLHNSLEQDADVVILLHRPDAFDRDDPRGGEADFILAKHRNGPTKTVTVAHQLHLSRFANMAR
Put plainly: DnaB intein splicing inhibitors, dose response, biochemical, cell-free fluorescence (AID 449749). It counts as functional.

Assay [2] deals with T2, Corticotropin-releasing factor receptor 2/Corticotropin-releasing factor-binding protein (Homo sapiens, UniProt P24387+Q13324).
T2 sequence (Q13324 whole entry): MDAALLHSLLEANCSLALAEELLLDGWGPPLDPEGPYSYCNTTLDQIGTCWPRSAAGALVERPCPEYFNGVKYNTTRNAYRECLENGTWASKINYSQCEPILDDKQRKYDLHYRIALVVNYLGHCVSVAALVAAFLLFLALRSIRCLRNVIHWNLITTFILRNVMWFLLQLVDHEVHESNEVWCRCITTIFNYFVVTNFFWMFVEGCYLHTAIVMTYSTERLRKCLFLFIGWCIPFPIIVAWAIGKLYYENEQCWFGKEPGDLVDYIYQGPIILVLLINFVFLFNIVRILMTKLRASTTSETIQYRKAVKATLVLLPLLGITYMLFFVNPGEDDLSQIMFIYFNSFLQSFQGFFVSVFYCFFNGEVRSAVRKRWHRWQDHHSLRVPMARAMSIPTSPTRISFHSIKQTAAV
T2 sequence (P24387 whole entry): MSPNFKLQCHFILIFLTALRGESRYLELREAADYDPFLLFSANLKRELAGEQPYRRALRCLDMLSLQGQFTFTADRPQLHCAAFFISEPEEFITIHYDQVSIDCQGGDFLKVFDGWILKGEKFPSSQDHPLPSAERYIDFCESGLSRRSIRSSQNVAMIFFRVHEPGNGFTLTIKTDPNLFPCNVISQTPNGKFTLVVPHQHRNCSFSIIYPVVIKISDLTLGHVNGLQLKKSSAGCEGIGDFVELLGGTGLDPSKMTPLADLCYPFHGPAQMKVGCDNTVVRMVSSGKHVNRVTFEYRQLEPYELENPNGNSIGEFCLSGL
The assay is described as follows: activators of CRF receptor 2 with binding protein – uHTS hits, confirmation (AID 602473). It counts as functional. To be noted: read-out: EC50_Mean.

A further assay addresses T3, Protein RecA (Mycobacterium tuberculosis, UniProt P9WHJ3).
T3 sequence (P9WHJ3 whole entry): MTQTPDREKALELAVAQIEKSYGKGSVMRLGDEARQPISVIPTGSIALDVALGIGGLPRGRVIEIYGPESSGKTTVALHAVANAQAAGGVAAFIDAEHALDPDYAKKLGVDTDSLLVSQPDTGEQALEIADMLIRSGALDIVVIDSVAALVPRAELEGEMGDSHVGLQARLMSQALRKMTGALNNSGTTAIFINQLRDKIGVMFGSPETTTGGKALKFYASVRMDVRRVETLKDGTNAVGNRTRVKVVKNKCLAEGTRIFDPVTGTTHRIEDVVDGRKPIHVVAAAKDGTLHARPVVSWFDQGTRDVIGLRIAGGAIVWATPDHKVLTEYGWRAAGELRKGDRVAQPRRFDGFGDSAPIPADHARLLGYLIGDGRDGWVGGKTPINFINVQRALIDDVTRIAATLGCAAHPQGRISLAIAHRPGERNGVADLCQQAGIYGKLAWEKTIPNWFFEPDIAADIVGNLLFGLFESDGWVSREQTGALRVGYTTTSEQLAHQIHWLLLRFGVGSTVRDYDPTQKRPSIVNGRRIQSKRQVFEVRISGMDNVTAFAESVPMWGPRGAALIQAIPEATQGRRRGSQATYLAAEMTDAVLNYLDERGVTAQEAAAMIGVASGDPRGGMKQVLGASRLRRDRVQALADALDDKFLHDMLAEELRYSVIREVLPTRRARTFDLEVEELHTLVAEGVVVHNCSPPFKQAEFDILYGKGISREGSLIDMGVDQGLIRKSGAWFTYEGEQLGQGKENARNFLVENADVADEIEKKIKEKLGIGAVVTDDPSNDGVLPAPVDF
The assay is described as follows: Fluorescence Cell-Free Homogeneous Dose Retest to Identify Inhibitors of RecA-Intein Splicing Activity. [Related pubchem assays (depositor defined):AID2097, AID2223, AID489010, AID492950]. The assay is classed as functional.

Assay [3] is described as follows: viability of uninfected HEp-2 cells – cell-based, HTS, cytotoxicity control for RSV inhibitor project, dose response (AID 2410). The assay is classed as functional. To be noted: human respiratory syncytial virus.
Another assay concerns the target Cytochrome P450 2C9 (Homo sapiens, UniProt P11712).
The target in assay [4] is T4, Heat shock factor protein 1 (Mus musculus, UniProt P38532).
T4 sequence (P38532 whole entry): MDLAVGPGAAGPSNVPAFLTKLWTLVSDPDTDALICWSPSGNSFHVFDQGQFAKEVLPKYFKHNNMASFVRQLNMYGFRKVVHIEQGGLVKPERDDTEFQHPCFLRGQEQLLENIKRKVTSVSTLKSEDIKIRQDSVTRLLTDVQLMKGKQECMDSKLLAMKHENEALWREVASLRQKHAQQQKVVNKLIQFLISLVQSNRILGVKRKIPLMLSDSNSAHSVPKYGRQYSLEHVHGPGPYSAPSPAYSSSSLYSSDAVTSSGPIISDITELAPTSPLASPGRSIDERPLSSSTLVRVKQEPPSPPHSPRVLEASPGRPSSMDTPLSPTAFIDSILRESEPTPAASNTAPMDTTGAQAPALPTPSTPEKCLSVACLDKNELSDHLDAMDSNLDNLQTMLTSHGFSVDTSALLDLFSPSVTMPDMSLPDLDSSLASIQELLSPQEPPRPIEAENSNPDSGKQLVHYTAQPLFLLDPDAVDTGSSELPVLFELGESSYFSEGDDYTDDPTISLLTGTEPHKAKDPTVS
Put plainly: enhancement of HSF1-driven luciferase signal – cell-based, NIH3T3, luminescence, dose retest, confirmation (AID 435004).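 Note: stress induced by proteasome inhibitor MG132 added 30 min after compound; luciferase reporter driven by HSF1 response element in NIH3T3 cells; actives raise luminescence as potentiators of the MG132 stress response.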 The assay is classed as functional.

Activity calls are given as the source filed them.

Sequence of Cytochrome P450 2D6 (P10635 whole entry): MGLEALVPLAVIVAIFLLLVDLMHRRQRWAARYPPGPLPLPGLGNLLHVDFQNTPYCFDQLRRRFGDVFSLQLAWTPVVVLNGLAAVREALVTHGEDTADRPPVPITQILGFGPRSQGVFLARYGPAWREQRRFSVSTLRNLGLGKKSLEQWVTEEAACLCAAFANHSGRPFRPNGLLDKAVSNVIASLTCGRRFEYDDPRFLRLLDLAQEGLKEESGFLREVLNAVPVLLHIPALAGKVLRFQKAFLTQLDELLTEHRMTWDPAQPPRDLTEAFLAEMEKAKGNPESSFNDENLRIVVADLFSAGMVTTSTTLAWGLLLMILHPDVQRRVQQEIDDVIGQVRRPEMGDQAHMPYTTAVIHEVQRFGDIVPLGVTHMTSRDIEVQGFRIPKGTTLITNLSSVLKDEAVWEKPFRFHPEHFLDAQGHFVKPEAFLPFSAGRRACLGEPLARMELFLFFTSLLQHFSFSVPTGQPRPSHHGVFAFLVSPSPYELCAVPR
Sequence of Cytochrome P450 2C9 (P11712 whole entry): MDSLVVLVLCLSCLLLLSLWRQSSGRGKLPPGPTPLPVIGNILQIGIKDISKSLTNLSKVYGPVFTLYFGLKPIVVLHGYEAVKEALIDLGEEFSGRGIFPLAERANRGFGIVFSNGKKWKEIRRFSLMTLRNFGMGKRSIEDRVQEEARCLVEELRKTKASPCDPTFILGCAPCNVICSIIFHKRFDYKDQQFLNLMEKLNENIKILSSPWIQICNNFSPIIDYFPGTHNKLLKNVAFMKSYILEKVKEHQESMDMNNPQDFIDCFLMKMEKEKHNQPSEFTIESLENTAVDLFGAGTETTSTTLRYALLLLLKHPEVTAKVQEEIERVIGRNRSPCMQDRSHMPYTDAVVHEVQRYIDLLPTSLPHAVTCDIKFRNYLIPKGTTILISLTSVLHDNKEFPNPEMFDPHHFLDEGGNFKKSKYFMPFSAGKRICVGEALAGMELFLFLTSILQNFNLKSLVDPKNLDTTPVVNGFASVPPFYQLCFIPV

For `CCCC(=O)NCCc1c2n(c3ccc(OC)cc13)Cc1ccccc1-2`, the AC50 at Cytochrome P450 2D6 is 39.8 µM (inconclusive). With `Cc1ccc(S(=O)(=O)Oc2ccc(C(c3c(C)n[nH]c3O)c3c(C)n[nH]c3O)cc2)cc1`, the AC50 in assay [1] was 7.06 µM (active). Further, the EC50 was > 53 µM (inactive) in assay [2] and 46.2 µM (active) on Protein RecA. `CCOc1ccc(NS(=O)(=O)c2ccc(C(=O)NCC(c3ccco3)N3CCCC3)cc2)cc1` (stereo not given): the EC50 in assay [2] is 6.17 µM (active). Turning to `O=C(N/C=C/c1ccccc1)Nc1ccc(Cl)cc1`, the CC50 in assay [3] was 20.8 µM (active). Still for that read-out and setting: the figure for `CCOc1ccc(S(=O)(=O)N2CCN(c3ccccc3)CC2)c2cccnc12` is 30.9 µM (active).

For the compound `CCOC(=O)N1CCN(c2nc(-c3ccco3)cc(C(F)(F)F)n2)CC1`, the AC50 on Cytochrome P450 2D6 was 14.1 µM (inconclusive).

As to `c1cn(-c2ncnc3ccc(-c4ccoc4)cc23)cn1`, the AC50 at Cytochrome P450 2D6 was 39.8 µM (inconclusive). On to `O=[N+]([O-])c1cc(C(F)(F)F)ccc1SCC(O)CO` (stereo not given), for which the cytotoxic concentration (CC50) in assay [3] is > 50 µM (active). `c1ccc2c(CSCc3cccc4ccccc34)cccc2c1`: on Cytochrome P450 2C9, the AC50 was 3.16 µM (inconclusive). As to `CC(=O)Oc1ccc(N(C(C)=O)S(=O)(=O)c2ccc3ccccc3c2)cc1Br`, in assay [1], the half-maximal activity concentration (AC50) is 9.4 µM (active). Besides, the EC50 on Protein RecA is 17.3 µM (active).

For `COc1ccc(-c2[nH]nc3c2C(c2ccoc2)C(C#N)=C(N)O3)cc1` (stereo not given), the AC50 in assay [1] is 1.39 µM (active). Besides, the EC50 at Protein RecA was 0.548 µM (active). Regarding `Cc1nc2ccc(S(=O)(=O)NC(CC(C)C)C(=O)O)cc2s1` (stereo not given), the AC50 at Cytochrome P450 2C9 is 12.6 µM (inconclusive). With `O=C1C=C/C(=N/c2cccc3c(/N=C4\C=CC(=O)O4)cccc23)O1`, the AC50 at Cytochrome P450 2C9 was 6.31 µM (inconclusive).

Regarding `CCCc1n[nH]c2c1C(c1ccsc1)C(C#N)=C(N)O2` (stereo not given), the concentration at half-maximal activity (AC50) in assay [1] was 16.5 µM (active). At Protein RecA, the EC50 was 2.28 µM (active). On to `Cc1noc(C)c1COC(=O)CCN1c2ccccc2Sc2ccccc21`, for which the CC50 in assay [3] is 37.9 µM (active).

As for `CC(C)(C)C(=O)Nc1cccc(-c2cc(-c3c(Cl)cccc3Cl)no2)c1`, the EC50 in assay [4] was > 260 µM (inactive). Moreover, the CC50 in assay [3] is 12.9 µM (active). On to `O=C(Nc1cnc(O)nc1O)c1cccc(F)c1`, for which the 50% cytotoxic concentration (CC50) in assay [3] is 18.6 µM (active). Consider `Cc1ccc(NC(=O)c2sc3ncnc(N4CCN(c5ccccn5)CC4)c3c2C)c(C)c1`, for which the AC50 in assay [1] is 15.7 µM (active). For the same compound, the EC50 on Protein RecA is > 380 µM (inactive). For `Brc1ccc2c(c1)C(c1ccc(N3CCOCC3)cc1)=NNC(c1cccs1)=N2`, the CC50 in assay [3] is 32.1 µM (active). Turning to `CCn1c2ccccc2c2cc(NS(=O)(=O)c3ccccc3C)ccc21`, the AC50 at Cytochrome P450 2D6 was 8.91 µM (inconclusive). For the compound `Cc1oc2cc(O)cc(C)c2c(=O)c1-c1cnn(-c2ccccc2)c1`, in assay [3], the CC50 is 15.6 µM (active).

With `CCN=C(S)NNC(=O)c1cccn(Cc2ccc(Cl)cc2Cl)c1=O`, the EC50 in assay [2] is 7.26 µM (active).

Regarding `COc1cc(Cn2nnc3ccccc32)cc(Br)c1O`, the CC50 in assay [3] was 23.2 µM (active). As to `COc1ccc(N(C)C(=O)c2cc3c(s2)-c2c(C)cccc2OC3)c(OC)c1`, the AC50 in assay [1] was 74.5 µM (active). Further, the EC50 on Protein RecA is 133 µM (inconclusive). The CC50 in assay [3] is 19.6 µM (active).

For `COC(=O)c1[nH]c2ccc(Br)cc2c1NC(=O)CN1CCCc2ccccc21`, the CC50 in assay [3] is 41.9 µM (active). As to `O=C1/C(=C/c2ccc3c(c2)OCO3)CCC/C1=C\c1ccc2c(c1)OCO2`, the AC50 in assay [1] was > 380 µM (inactive). For the same compound, the EC50 on Protein RecA is > 380 µM (inactive). For `CCCc1n[nH]c2c1C(c1cc(OC)cc(OC)c1)C(C#N)=C(N)O2` (stereo not given), in assay [1], the AC50 was 1.27 µM (active). Besides, at Protein RecA, the EC50 is 1.51 µM (active). With `N#CC1=C(N)N(c2ccccc2)C(c2cccc([N+](=O)[O-])c2)C1(C#N)C#N` (stereo not given), in assay [1], the AC50 was 5.73 µM (active). The EC50 at Protein RecA was 12.8 µM (active). `O=S(=O)(NC1CCCCC1N1CCN(c2ccc(F)cc2)CC1)c1ccc(Cl)cc1` (stereo not given): in assay [2], the EC50 is 3.94 µM (active).

Regarding `O=C(c1ccc2nc(Cc3cccc(Cl)c3)oc2c1)N1CCC(O)CC1`, the AC50 in assay [1] was 357 µM (active). Moreover, the EC50 at Protein RecA was > 380 µM (inactive). `COc1ccc(C(=O)C2=C(O)C(=O)N(CCN(C)C)C2c2cccnc2)cc1C` (stereo not given): the EC50 in assay [2] was > 53 µM (inactive).

Turning to `Cc1[nH]n(-c2ccccc2)c(=O)c1C=C1C(=O)NC(=O)NC1=O`, the AC50 in assay [1] is 16.8 µM (active). Moreover, the EC50 at Protein RecA is 7.39 µM (active). As to `C/C(=N\Nc1cccc([N+](=O)[O-])c1)c1cc(F)ccc1O`, in assay [3], the CC50 was > 50 µM (active). On to `CCn1c(N)nc2ccccc21`, for which, at Cytochrome P450 2D6, the AC50 is 17.8 µM (inconclusive). On to `COc1ccc(CNc2ncnc3ccc(-c4cccc(NS(C)(=O)=O)c4)cc23)c(OC)c1`, for which the AC50 at Cytochrome P450 2D6 is 10 µM (inconclusive).

Take `CCOC(=O)NNc1nncc2ccccc12` [TODRALAZINE]: on Cytochrome P450 2D6, the AC50 was 12.6 µM (inconclusive).

For the origin of these results see ChEMBL document CHEMBL1201862, “PubChem BioAssay data set” (2004).
